Measurements taken from the supplement of paper PMC13380429.

Experiments:
Details in all cases: 72 h
[1] = system: HepG2; assay: relative viability EC50 (midpoint between 100% and the lowest measured viability); higher = less toxic
[2] = system: Calu-3; assay: as above
[3] = system: U2OS; assay: as above
[4] = system: Caco-2; assay: as above
[5] = system: Vero E6; assay: as above
[6] = system: HepG2; assay: drug sensitivity score (DSS) for viability; higher = more toxic; extreme values may be limits of the assay
[7] = system: Calu-3; assay: as above
[8] = system: U2OS; assay: as above
[9] = system: Caco-2; assay: as above
[10] = system: Vero E6; assay: as above
[11] = system: HepG2; assay: cell viability relative to DMSO; higher = less toxic
[12] = system: Calu-3; assay: as above
[13] = system: U2OS; assay: as above
[14] = system: Caco-2; assay: as above
[15] = system: Vero E6; assay: as above

Structure (SMILES)	relative viability EC50 [1] [µM]	relative viability EC50 [2] [µM]	relative viability EC50 [3] [µM]	relative viability EC50 [4] [µM]	relative viability EC50 [5] [µM]	drug sensitivity score [6]	drug sensitivity score [7]	drug sensitivity score [8]	drug sensitivity score [9]	drug sensitivity score [10]	cell viability ([11]; 1 nM) [%]	cell viability ([11]; 10 nM) [%]	cell viability ([11]; 100 nM) [%]	cell viability ([11]; 1000 nM) [%]	cell viability ([11]; 10000 nM) [%]	cell viability ([12]; 1 nM) [%]	cell viability ([12]; 10 nM) [%]	cell viability ([12]; 100 nM) [%]	cell viability ([12]; 1000 nM) [%]	cell viability ([12]; 10000 nM) [%]	cell viability ([13]; 1 nM) [%]	cell viability ([13]; 10 nM) [%]	cell viability ([13]; 100 nM) [%]	cell viability ([13]; 1000 nM) [%]	cell viability ([13]; 10000 nM) [%]	cell viability ([14]; 1 nM) [%]	cell viability ([14]; 10 nM) [%]	cell viability ([14]; 100 nM) [%]	cell viability ([14]; 1000 nM) [%]	cell viability ([14]; 10000 nM) [%]	cell viability ([15]; 1 nM) [%]	cell viability ([15]; 10 nM) [%]	cell viability ([15]; 100 nM) [%]	cell viability ([15]; 1000 nM) [%]	cell viability ([15]; 10000 nM) [%]
CC(=O)[C@]1(O)Cc2c(O)c3c(c(O)c2[C@@H](O[C@H]2C[C@H](N)[C@H](O)[C@H](C)O2)C1)C(=O)c1ccccc1C3=O [idarubicin]	0.016	0.0921	0.128	0.117	0.12	32.2	21	22.2	20.7	22	94.8	50.3	29.7	0	0.1	104	90.1	48.6	27.7	9.7	100	86.3	60.7	1	0	103	96.1	62.1	10.8	17.4	106	94	58.2	6.1	2.9
CC(C)CC(N)=O [isovaleramide]	> 10	> 10	> 10	> 10	> 10	0	0	0	0	0	103	99.4	101	95.5	101	113	103	97.1	105	95.4	102	92.8	99.3	89.1	96.7	106	92.6	99.1	99.4	101	102	101	102	97.9	93.1
C=CCN1CC[C@]2(C)c3cc(O)ccc3C[C@H]1[C@H]2C	> 10	> 10	> 10	> 10	> 10	0	0	0	0	0	98	95.4	108	104	117	102	90.2	94.7	90.3	93.8	98.6	98.2	103	99.2	101	97.3	99	102	103	96.3	96.9	102	93.4	100	107
FC(F)(F)c1cccc(-c2noc(-c3cc(-c4ccccc4)c(C(F)(F)F)s3)n2)c1 [SEW-2871]	> 10	> 10	> 10	> 10	> 10	0	0	0	0	0	102	103	93.9	100	99	93.2	91.1	99.9	93.3	98.5	93.7	99.1	96	102	102	103	104	102	99.8	108	101	98	97.4	90.7	110
O=C(Nc1ccccc1Br)N[C@@H]1CCN(c2ccc(C(F)(F)F)cn2)C1	> 10	> 10	> 10	> 10	> 10	0	0	0	0	0	103	106	103	97.8	99.2	96.1	98.5	97.1	97.4	96.8	98.9	102	97.4	104	94.7	86.7	97.2	97.9	98	86.9	108	100	103	99.8	96.9
CC(C)[C@H](N)C(=O)OCC(CO)OCn1cnc2c(=O)nc(N)[nH]c21 (mixture of isomers) [valganciclovir]	> 10	> 10	> 10	> 10	> 10	0	0	0	0.3	0	97.9	95	97.3	95.8	90.5	107	101	108	104	91.8	90.7	102	98.2	104	108	94.3	107	103	114	80	99.3	91.8	103	97.4	97.4
Cc1cc(C)cc(OCC2CNC(=O)O2)c1 (stereo not given) [metaxalone]	> 10	> 10	> 10	> 10	> 10	0	0	0	0	0	92.1	99.7	87	93.2	101	95.6	102	103	100	95.4	97.4	96.8	97.1	99.2	98.8	100	101	99.9	103	105	101	103	102	105	97.7
